The nature of series [1]: Chromatographic hydrophobicity index, logD of the compound at pH 7.4 by HPLC analysis. Format: physicochemical. The settings on record: buffer.
Series [2] concerns the target T1, Peregrin (Homo sapiens, UniProt P55201).
T1 sequence (P55201 whole entry): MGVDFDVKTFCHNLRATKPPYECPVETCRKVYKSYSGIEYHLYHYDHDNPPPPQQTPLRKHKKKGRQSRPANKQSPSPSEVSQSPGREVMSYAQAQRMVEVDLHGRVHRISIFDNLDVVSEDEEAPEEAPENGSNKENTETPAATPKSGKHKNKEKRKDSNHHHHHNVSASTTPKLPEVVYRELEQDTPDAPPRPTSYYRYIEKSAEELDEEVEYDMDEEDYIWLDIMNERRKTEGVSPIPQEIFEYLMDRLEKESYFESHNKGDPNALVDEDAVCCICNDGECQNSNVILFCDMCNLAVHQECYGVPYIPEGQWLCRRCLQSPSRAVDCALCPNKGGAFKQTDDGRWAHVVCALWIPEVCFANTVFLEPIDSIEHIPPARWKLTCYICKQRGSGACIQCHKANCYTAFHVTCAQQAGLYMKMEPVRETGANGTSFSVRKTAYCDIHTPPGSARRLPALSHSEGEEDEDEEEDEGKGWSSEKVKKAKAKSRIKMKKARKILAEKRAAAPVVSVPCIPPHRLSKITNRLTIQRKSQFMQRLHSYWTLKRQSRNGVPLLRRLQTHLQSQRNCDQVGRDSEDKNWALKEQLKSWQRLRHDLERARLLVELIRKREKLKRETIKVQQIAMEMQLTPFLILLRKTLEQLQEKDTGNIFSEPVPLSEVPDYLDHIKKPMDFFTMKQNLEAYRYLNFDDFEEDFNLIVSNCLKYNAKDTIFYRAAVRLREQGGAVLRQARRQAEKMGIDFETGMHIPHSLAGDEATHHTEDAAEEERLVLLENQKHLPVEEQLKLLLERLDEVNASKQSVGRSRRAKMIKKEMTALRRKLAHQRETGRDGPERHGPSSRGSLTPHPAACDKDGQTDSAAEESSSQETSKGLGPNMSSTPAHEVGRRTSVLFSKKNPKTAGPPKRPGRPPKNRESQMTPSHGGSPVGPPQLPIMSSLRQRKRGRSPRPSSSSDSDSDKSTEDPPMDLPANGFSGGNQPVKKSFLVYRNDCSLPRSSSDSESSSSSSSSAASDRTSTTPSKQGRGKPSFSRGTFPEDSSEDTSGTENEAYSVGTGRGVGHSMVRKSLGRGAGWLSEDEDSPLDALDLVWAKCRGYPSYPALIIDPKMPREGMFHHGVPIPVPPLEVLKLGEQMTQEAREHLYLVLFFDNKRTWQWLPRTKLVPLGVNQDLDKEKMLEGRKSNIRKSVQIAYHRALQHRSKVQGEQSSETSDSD
Kind of series: Binding affinity to human partial length BRPF1 (E627 to G740 residues) expressed in bacterial expression system by BROMOscan assay.

In series [3] the target is T2, Bromodomain-containing protein 4 (Homo sapiens, UniProt O60885). Kind of series: Binding affinity to human partial length BRD4 (1) (N44 to E168 residues) expressed in bacterial expression system by BROMOscan assay.
The target in series [4] is T3, Bromodomain-containing protein 9 (Homo sapiens, UniProt Q9H8M2).
T3 sequence (Q9H8M2 whole entry): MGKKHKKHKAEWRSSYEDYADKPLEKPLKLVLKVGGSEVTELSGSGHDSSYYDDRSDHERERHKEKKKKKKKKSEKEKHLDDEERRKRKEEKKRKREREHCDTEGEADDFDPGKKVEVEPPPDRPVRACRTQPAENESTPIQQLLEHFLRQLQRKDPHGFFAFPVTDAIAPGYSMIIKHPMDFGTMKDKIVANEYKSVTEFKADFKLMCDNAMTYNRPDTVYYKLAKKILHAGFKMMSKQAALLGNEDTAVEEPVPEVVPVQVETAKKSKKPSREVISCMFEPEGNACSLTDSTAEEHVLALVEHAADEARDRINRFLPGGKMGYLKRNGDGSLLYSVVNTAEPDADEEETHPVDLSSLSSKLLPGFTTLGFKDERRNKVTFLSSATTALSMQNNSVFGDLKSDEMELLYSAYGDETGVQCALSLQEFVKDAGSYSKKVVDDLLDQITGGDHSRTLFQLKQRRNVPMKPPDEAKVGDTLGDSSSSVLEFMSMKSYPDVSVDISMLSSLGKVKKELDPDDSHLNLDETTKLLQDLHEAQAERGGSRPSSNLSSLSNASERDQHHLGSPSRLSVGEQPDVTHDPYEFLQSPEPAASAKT
Description: Binding affinity to human partial length BRD9 (R130 to V259 residues) expressed in bacterial expression system by BROMOscan assay

Series [5] concerns the target T3, Bromodomain-containing protein 9. Kind of series: Binding affinity to BRD9 (unknown origin) N-terminal bromodomain by TR-FRET assay. On the technique in general: Time-resolved FRET reads energy transfer from a long-lived donor to a nearby acceptor.
The target of series [6] is T2, Bromodomain-containing protein 4. Kind of series: Binding affinity to BRD4 (1) (unknown origin) N-terminal bromodomain by TR-FRET assay.
For series [7], the species on record is Homo sapiens. Kind of series: Selectivity index, ratio of IC50 for binding affinity to BRD4 (1) (unknown origin) N-terminal bromodomain to IC50 for binding affinity to BRD9 (unknown origin) N-terminal bromodomain.
For series [8], the target named is T4, Bromodomain-containing protein 9 (Homo sapiens) (UniProt Q9H8M2).
T4 sequence (whole entry): T3 sequence (Q9H8M2 whole entry)
Kind of series: Inhibition of human partial length BRD9 (R130 to V259 residues) expressed in bacterial expression system at 10 uM by BROMOscan assay relative to control.

Series [9] addresses T5, Bromodomain-containing protein 7 (Homo sapiens, UniProt Q9NPI1).
T5 sequence (Q9NPI1 whole entry): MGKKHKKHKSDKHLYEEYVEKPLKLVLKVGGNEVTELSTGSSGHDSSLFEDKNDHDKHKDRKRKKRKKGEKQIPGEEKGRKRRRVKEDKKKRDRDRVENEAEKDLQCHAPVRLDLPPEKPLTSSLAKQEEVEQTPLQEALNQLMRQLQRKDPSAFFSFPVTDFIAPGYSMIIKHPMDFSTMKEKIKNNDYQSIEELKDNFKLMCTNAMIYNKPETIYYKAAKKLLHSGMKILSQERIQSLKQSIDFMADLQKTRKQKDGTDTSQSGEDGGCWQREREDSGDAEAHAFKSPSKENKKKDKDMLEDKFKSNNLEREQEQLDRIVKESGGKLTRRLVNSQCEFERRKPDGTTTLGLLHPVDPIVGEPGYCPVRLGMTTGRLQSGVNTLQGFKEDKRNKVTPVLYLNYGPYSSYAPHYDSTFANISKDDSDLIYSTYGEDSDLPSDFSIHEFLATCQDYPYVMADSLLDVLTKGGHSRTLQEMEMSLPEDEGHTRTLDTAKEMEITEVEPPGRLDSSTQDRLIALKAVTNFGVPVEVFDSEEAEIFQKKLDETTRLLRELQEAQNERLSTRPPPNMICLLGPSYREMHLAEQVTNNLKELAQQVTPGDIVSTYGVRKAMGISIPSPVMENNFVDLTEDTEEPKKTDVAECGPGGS
Kind of series: Binding affinity to BRD7 (unknown origin).

A short description of series [10]: Solubility of compound by CLND method. The series is classed as physicochemical.
The nature of series [11]: Permeability by PAMPA. Format: ADME. The settings on record: read-out: permeability. In general terms: PAMPA measures passive passage across an artificial lipid membrane.

Each structure is given as a SMILES string.

As a reminder, the chromatographic logD is lipophilicity estimated from chromatographic retention. Low readings indicate a more hydrophilic compound, high ones a more lipophilic compound. In general, Ki refers to a dissociation constant, usually derived from enzyme kinetics or from competition with a known ligand. Low readings indicate tighter binding, high ones weaker binding. In [1], `CCc1c(NCc2ccccc2N2CCN(C)CC2)cnn(C)c1=O` had a chromatographic logD of 2.3. Also, the Ki in [2] is 6.31 µM; in [3], 7.94 µM; in series [4] it was 0.0794 µM.
A word on the IC50: it is the concentration that inhibits the measured activity by half. Lower therefore signals higher potency. Turning to `Cc1ccccc1CNc1cnn(C)c(=O)c1C`, the IC50 is 0.398 µM in [5] and 25.1 µM in series [6]. Moreover, in series [1], the chromatographic logD was determined as 3.6. For the same compound, the fold selectivity in [7] stood at 63.
For `Cc1c(NCc2ccccc2-c2ccccc2)cnn(C)c1=O`, in that order: 0.1 µM, 12.6 µM, 4.8 and 125.
One may read the inhibition as the change of the read-out against control, counted positive when it falls. A lower inhibition goes with a weak effect. In turn, `CCCCc1nnc2c(NC(=O)OCC)cc(-c3ccc(C)c(NS(C)(=O)=O)c3)nn12` yielded an inhibition in series [8] of over 95%.
In the case of `Cc1c(NCc2ccccc2N2CCN(CCCN)CC2)cnn(C)c1=O`, the figures for the IC50 in series [5] and in [6] were 0.0631 µM and 15.8 µM, respectively. In series [1], the chromatographic logD was 1.2. For the same compound, the fold selectivity in [7] stood at 250.
In series [1], `C/C=C/Cc1c(NCc2ccccc2N2CCN(C)CC2)cnn(C)c1=O` displayed a chromatographic logD of 3.1. Besides, the figures for the Ki in [2], in [3] and in series [4] were over 10 µM, 3.98 µM and 0.0398 µM, respectively.
With `CCCCc1c(Nc2cccc3c2CCN(C)C3)cnn(C)c1=O`, in [6], the IC50 was over 50.1 µM. In addition, in series [4], the Ki was 0.0794 µM.
Take `Cc1ccc(CNc2cnn(C)c(=O)c2Cl)cc1`: the IC50 is 0.794 µM in series [5] and 12.6 µM in [6]. Also, the chromatographic logD in series [1] was 4. In addition, in series [7], the fold selectivity was 16.
In series [8], `CCOC(=O)Nc1cc(-c2ccc(C)c(NS(C)(=O)=O)c2)nn2c(C)nnc12` displayed an inhibition of 100%.
With `C=C[C@@H](C)c1c(NCc2ccccc2N2CCN(C)CC2)cnn(C)c1=O`, the chromatographic logD in [1] was determined as 3.1. Moreover, the figures for the Ki in series [2], in [3] and in series [4] were over 10 µM, over 10 µM and 0.251 µM, respectively.
`C=C[C@H](C)c1c(NCc2ccccc2N2CCN(C)CC2)cnn(C)c1=O` returned a chromatographic logD in series [1] of 3.1. Besides, the figures for the Ki in [2], in [3] and in [4] were over 10 µM, over 10 µM and 0.316 µM, respectively.
Turning to `Cc1c(NCc2ccccc2N2CCNCC2)cnn(C)c1=O`, the results for the IC50 in series [5] and in [6] were 0.2 µM and over 50.1 µM, respectively. In [1], this compound had a chromatographic logD of 0.7. For the same compound, in [7], the fold selectivity was over 250.
For `Cc1c(NCc2ccccc2)cnn(C)c1=O`, in that order: 1.26 µM, 25.1 µM, 2.9 and 20.
On to `COc1cc(-c2cn(C)c(=O)c3cnccc23)c(OC)cc1CN(C)CC(=O)NCCOCCOCCNc1cccc2c1C(=O)N(C1CCC(=O)NC1=O)C2=O` (stereo not given), for which the IC50 in series [9] was 0.1 µM.
`Cc1c(Nc2cccc3c2CCN(C)C3)cnn(C)c1=O` showed an IC50 in series [6] of 39.8 µM. Further, the Ki in series [4] was 0.158 µM.
`Cc1cccc(CNc2cnn(C)c(=O)c2Cl)c1`: the IC50 in [5] was 2.51 µM; in series [6], 20 µM. The chromatographic logD in [1] is 4. In addition, the fold selectivity in [7] was found to be 8.
For `CNc1cnn(C)c(=O)c1Cl`, the IC50 in series [5] was 25.1 µM; in [6], 126 µM.
With `CC(C)c1c(NCc2ccccc2N2CCN(C)CC2)cnn(C)c1=O`, the chromatographic logD in series [1] was found to be 3.1. Moreover, the results for the Ki in [2], in series [3] and in series [4] were 7.94 µM, over 10 µM and 0.316 µM, respectively.
With `CCCc1c(NCc2ccccc2N2CCN(C)CC2)cnn(C)c1=O`, in series [1], the chromatographic logD was determined as 2.8. The Ki in series [2] is over 10 µM; in series [3] it was over 10 µM; in series [4] it was 0.126 µM.
Turning to `Cc1c(NCc2ccccc2N2CCOCC2)cnn(C)c1=O`, the figures for the IC50 in [5] and in series [6] were 0.1 µM and 20 µM, respectively. Further, the chromatographic logD in series [1] was found to be 3.2. The fold selectivity in series [7] turned out to be 200.
Take `C/C=C\Cc1c(NCc2ccccc2N2CCN(C)CC2)cnn(C)c1=O`: the chromatographic logD in series [1] was 3. Moreover, the Ki in series [2] was over 10 µM; in [3], over 10 µM; in series [4], 0.251 µM.
In turn, `CCCCn1cc(-c2cccc(C(F)(F)F)c2)c2sc(C(=N)NC3CCS(=O)(=O)CC3)cc2c1=O` gave a Ki in [4] of 0.01 µM.
Consider `CC/C=C/c1c(NCc2ccccc2N2CCN(C)CC2)cnn(C)c1=O`, for which the chromatographic logD in [1] was 3.5. For the same compound, the Ki in series [2], in [3] and in series [4] was over 10 µM each time.
In turn, `C=CCCc1c(NCc2ccccc2N2CCN(C)CC2)cnn(C)c1=O` returned a chromatographic logD in series [1] of 3.2. Besides, the Ki is over 10 µM in [2], over 10 µM in series [3] and 0.398 µM in series [4].
In [1], `CCCCCc1c(NCc2ccccc2N2CCN(C)CC2)cnn(C)c1=O` registered a chromatographic logD of 4.2. For the same compound, the Ki in series [2] was over 10 µM; in series [3], 1.58 µM; in [4], 0.158 µM.
Regarding `Cc1c(NCc2ccccc2N2CCCOCC2)cnn(C)c1=O`, the IC50 is 0.1 µM in [5] and 12.6 µM in series [6]. Further, in series [1], the chromatographic logD amounted to 3.5. In [7], the fold selectivity was 125.
One may read the solubility (kinetic) as solubility judged after dilution from a stock solution rather than from solid. Consider `CN1CCN(c2ccccc2CNc2cnn(C)c(=O)c2)CC1`, for which the chromatographic logD in series [1] is 1.1. Besides, the kinetic solubility in series [10] was at least 150 µg/mL. Moreover, the Papp in series [11] was determined as 14 ×10⁻⁶ cm/s. The IC50 in [3] and in series [4] was over 50.1 µM in each case.
Turning to `C=CCc1c(NCc2ccccc2N2CCN(C)CC2)cnn(C)c1=O`, the chromatographic logD in series [1] is 2.5. The Ki in [2] was over 10 µM; in [3] it was over 10 µM; in series [4] it was 0.1 µM.

The values above are taken from ChEMBL document CHEMBL4613271, “Application of Atypical Acetyl-lysine Methyl Mimetics in the Development of Selective Inhibitors of the Bromodomain-Containing Protein 7 (BRD7)/Bromodomain-Containing Protein 9 (BRD9) Bromodomains” (J Med Chem, 2020).
